Measured values published in patent US8771680B2, “Topical co-enzyme Q10 formulations and methods of use” (University of Miami, priority 2004, dated 2014).

Assays:
[1] = of cancer patients having progressive disease before treatment; cited from earlier work
[2] = tested on: human prostatic adenocarcinoma cell line (PC-3); test: Proliferation of prostatic adenocarcinoma cell line PC-3 in in vitro culture; format: cell-based
Method: (§1) Retrieve Q10 stock from −20° C. storage and weigh out approximately 4.4 mg. Transfer Q10 into a 25 mL centrifuge tube. Add 1 mL 2-propanol to centrifuge tube. Vortex and dip in hot water bath (55° C.) to promote dissolution. Add 9 mL of media to centrifuge tube. Vortex and dip in hot water bath (55° C.) if necessary to create a homogenous solution. […] Make serial dilutions to treatment concentrations.
(§2) After subculture (per subculturing cells protocol described above), pipet the desired volume suspension of cells to count (0.25-1 mL) into Coulter Counter Vial (Beckman, Inc.) using an automatic pipette. Insure that the Beckman Coulter® Z1 Cell and Particle Counter is clean by using Coulter CLENZ (Beckman, Inc., Fullerton, Calif.) to flush. Flush apparatus once with Isoton II Diluent. Add Isoton II Diluent to vial containing cells for a total volume of 10 mL. Use output mode of apparatus to count cells twice to ensure accuracy. Average counts together and calculate total cell number per volume.
(§3) Acclimate reagents to 37° C. in water bath. Make stock solution of Q10 as per protocol described above for creating a homogenous solution of Q10 in media. Perform serial dilutions to desired concentrations. Place 2 mL media into respective wells. Subculture flasks as per protocol described above for subculturing cells. […]

[3] = tested on: human neonatal keratinocytes; test: Proliferation of neonatal keratinocytes in in vitro culture; format: cell-based; conditions: 48 hour in vitro culture
Method: as §1, §2, §3

SK-MEL28 tumors = test: Effect of topical formulation of Coenzyme Q10 on SK-MEL28 tumors in mice; format: in vivo
Method: Subculture flasks as per the cell subculturing protocol described above. After aspirating supernatant, combine pellets from each flask diluted slightly with PBS with a 5 mL pipette. Dilute final cell suspension to contain approximately ten million cells per 100 μL. Transfer cell suspension to micro-centrifuge tubes (2 mL). Place in ice immediately and leave in ice until injected. Anesthetize mice via an intraperitoneal injection with 0.3 cc Aventin. Inoculate each animal subcutaneously with 0.1 cc cell suspension per site. Transfer any remaining cells into a 15 mL centrifuge tube. Dilute to 10 mL with medium. Centrifuge at 2500 RPM for 8 minutes. Aspirate supernatant. Add 10 mL media to centrifuge tube. Create a homogenous cell suspension by pipetting and vortexing. Seed cells in a T75 flask to ensure experimental cell viability.
Melanoma tumors were induced in mice by SK-MEL28 injection into the subcutaneous layer. The animal study consisted of both a control and treatment group each containing four mice. The mice were inoculated with two tumors and the graph of FIG. 14 represents the resulting mean mass for the tumors in each mouse. A topical formulation of Coenzyme Q10 (A 1.0% and 1.5% formulation was tested) was applied to the tumors in the treatment group daily for a period of 30 days. After which, the tumors were excised and the mass was determined. […]

[4] = tested on: skin cancer cells (SK-Mel28); test: Apoptosis assay (Annexin-VPE) in skin cancer cells; format: cell-based, human; conditions: culture of skin cancer cells
Method: (§4) Cell lines used in the assay were SK-Mel28 and nFIB. Cells (SK-Mel28 and nFIB) were seeded (5×10^4 cells/well) into wells containing either solely medium or medium with treatment and placed in an incubator at 37° C., 5% CO2, and under humidified conditions for 48 hours. Each condition was performed in duplicate and was subjected to the following protocol:
(§5) Apoptosis Analysis as Per Protocol of BD Pharmingen Annexin-VPE Protocol
(§6) Reagents include Annexin V-PE (BD Pharmingen, San Diego, Calif.), 7-AAD (BD Pharmingen, San Diego, Calif.), binding buffer (10×: 0.1 M Hepes/NaOH, 1.4 M NaCl, 25 mM CaCl2) [diluted to 1× (9 mL PBS and 1 mL binding buffer) for use in experiment] (BD Pharmingen, San Diego, Calif.), Trypsin-EDTA (Gibco, Grand Island, N.Y.), and desired Media.
(§7) Add 0.5 mL trypsin to each well, remove trypsin after approximately 10 seconds, and add 0.5 mL trypsin to each well. Place wells in an incubator, observe level of detachment under microscope after 4 minutes, and gently tap sides and bottom to aid in detachment. When cells detach, neutralize with 0.5 mL serum-supplemented medium. Transfer cell solution to centrifuge tubes, centrifuge cells at 2000 RPM for 5 minutes, aspirate supernatant, resuspend in 6 mL PBS, and split 6 mL into three centrifuge tubes (2 mL each). […]

[5] = tested on: human breast adenocarcinoma cell line (SK-BR-3); test: Proliferation of breast adenocarcinoma cell line SK-BR-3 in in vitro culture; format: cell-based
Method: as §1, §2, §3

[6] = tested on: human osteosarcoma cell line (143B); test: Proliferation of osteosarcoma cell line 143B in in vitro culture; format: cell-based
Method: as §1, §2, §3

squamous carcinoma cells = test: Proliferation of squamous carcinoma cells in in vitro culture; format: cell-based; conditions: 48 hour in vitro culture
Method: as §1, §2, §3

normal cells (nFIB) = test: Apoptosis assay (Annexin-VPE) in normal cells; format: cell-based, human; conditions: culture of normal cells
Method: as §4, §5, §6, §7

[7] = tested on: breast adenocarcinoma cell line (MCF-7); test: Proliferation of breast adenocarcinoma cell line MCF-7 in in vitro culture; format: cell-based
Method: as §1, §2, §3

[8] = tested on: human hepatocellular carcinoma cell line (Hep 3B); test: Proliferation of hepatocellular carcinoma cell line Hep 3B in in vitro culture; format: cell-based
Method: as §1, §2, §3

[9] = tested on: human breast adenocarcinoma cell line (MDA-MB-468); test: Proliferation of breast adenocarcinoma cell line MDA-MB-468 in in vitro culture; format: cell-based
Method: as §1, §2, §3

[10] = tested on: human prostatic adenocarcinoma cell line (PC-3); test: Apoptosis analysis by JC-1 stain (mitochondrial polarization, flow cytometry); format: cell-based; conditions: PC-3 cells, 0.2 mM Q10, 24 h
Method: FIG. 28 is a graph showing the effect of CoQ10 on mitochondrial polarization (an indicator of apoptosis) of a human prostatic adenocarcinoma cell line (PC-3) in a 24 hour in vitro culture. PC-3 cell cultures were treated with Q10 at 0.05, 0.1 and 0.2 mM concentrations for 24 h and then treated with JC-1, at 10 microgram/ml., for 30 min. Uptake and levels of green fluorescence was measured in a flow cytometer, FL1 (green fluor.).
Apoptosis was measured using a mitochondrial membrane dye JC-1, 5,5′,6,6′-tetrachloro-1,1′,3,3′-tetraethyl-benzimidazolylcarbocyanine chloride (Molecular Probe, Eugene, Oreg.). Treatments consisting of DMEM-F12 media supplemented with 1×PSA, 5% FBS and 0, 50, 100, and 200 μM concentrations of coenzyme Q10 were prepared in 60×15 mm tissue culture dishes (Costar-Cambride, Mass.). PC-3 cells were seeded at 500,000 cells per dish and incubated for 24 hours. The cells were trypsinized using 2 mL trypsin-EDTA and subjected to centrifugation at 2,500 rpm for 8 minutes. They were resuspended in 1 mL of Ham's F12 medium lacking serum and phenol red (Cascade Biologics, Inc-Portland, Oreg.) and promptly placed on ice. A 1 mg/ml stock solution of JC-1 was prepared using sterile DMSO and 10 μL was added to each cell suspension while gently vortexing. […] The samples were analyzed by flow cytometry for changes in uptake of fluorescent dye. […]

[11] = tested on: human neonatal fibroblasts; test: Proliferation of neonatal fibroblasts in in vitro culture; format: cell-based; conditions: 48 hour in vitro culture
Method: as §1, §2, §3

[12] = tested on: human breast adenocarcinoma cell line (BT-20); test: Proliferation of breast adenocarcinoma cell line BT-20 in in vitro culture; format: cell-based
Method: as §1, §2, §3

[13] = tested on: human melanoma cell line (SKMEL28); test: Proliferation of melanoma cell line in in vitro culture (cell counting); format: cell-based
Method: as §1, §2, §3

NC(=O)c1nnn(Cc2cc(Cl)c(C(=O)c3ccc(Cl)cc3)c(Cl)c2)c1N [CAI, carboxyamidotriazole]
49%: disease stabilization [1]

COC1=C(OC)C(=O)C(C/C=C(\C)CC/C=C(\C)CC/C=C(\C)CC/C=C(\C)CC/C=C(\C)CC/C=C(\C)CC/C=C(\C)CC/C=C(\C)CC/C=C(\C)CCC=C(C)C)=C(C)C1=O [CoQ10, Coenzyme Q10]
52.3%: Average tumor mass decreased as compared to the control (SK-MEL28 tumors; 1.0% CoQ10 topically for 30 days)
significant increase: green fluorescence of JC-1 (mitochondrial polarization, an indicator of apoptosis) [10]
but not normal cells: rate of apoptosis (normal cells (nFIB))
reduces the proliferation: proliferation ([2]; PC-3, 48 hour in vitro culture) | proliferation ([2]; PC-3, 72 hour in vitro culture) | proliferation ([5]; SK-BR-3, 48 hour in vitro culture) | proliferation ([5]; SK-BR-3, 72 hour in vitro culture) | proliferation ([6]; 48 hour in vitro culture) | proliferation ([6]; 72 hour in vitro culture) | proliferation (squamous carcinoma cells) | proliferation ([7]; MCF-7, 48 hour in vitro culture) | proliferation ([7]; MCF-7, 72 hour in vitro culture) | proliferation ([8]; 48 hour in vitro culture) | proliferation ([8]; 72 hour in vitro culture) | proliferation ([9]; MDA-MB-468, 48 hour in vitro culture) | proliferation ([9]; MDA-MB-468, 72 hour in vitro culture) | proliferation ([12]; BT-20, 48 hour in vitro culture) | proliferation ([12]; BT-20, 72 hour in vitro culture) | proliferation ([13]; SKMEL28, 36 hour in vitro culture) | proliferation ([13]; SKMEL28, 48 hour in vitro culture)
increase the rate of apoptosis: rate of apoptosis [4]
54.0%: Average tumor mass decreased as compared to the control (SK-MEL28 tumors; 1.5% CoQ10 topically for 30 days)
increases the proliferation: proliferation [3] | proliferation [11]
